Measured values published in ChEMBL document CHEMBL5370581, “NMR-Metabolomic Profiling and Genome Mining Drive the Discovery of Cyclic Decapeptides from a Marine Streptomyces” (J Nat Prod, 2023).

How the values were obtained:
Format in all cases: functional, cell-based
A549/TR = test: Cytotoxicity against human A549/Taxol cells assessed as reduction in cell viability incubated for 48 hrs by MTT assay
NCI-H1299 = test: Cytotoxicity against human NCI-H1299 cells assessed as reduction in cell viability incubated for 48 hrs by MTT assay; conditions: NCI-H1299, 48 h
HEL = test: Cytotoxicity against HEL cells assessed as reduction in cell viability incubated for 72 hrs by WST assay; conditions: Homo sapiens
NCI-H1975 = test: Cytotoxicity against human NCI-H1975 cells assessed as reduction in cell viability incubated for 48 hrs by MTT assay; conditions: NCI-H1975, 48 h
SNU-638 = test: Cytotoxicity against human SNU-638 cells assessed as reduction in cell viability incubated for 72 hrs by SRB assay; conditions: SNU-638, 72 h
MDA-MB-231 = test: Cytotoxicity against human MDA-MB-231 cells assessed as reduction in cell viability incubated for 72 hrs by SRB assay; conditions: MDA-MB-231, 72 h
A549 = test: Cytotoxicity against human A549 cells assessed as reduction in cell viability incubated for 72 hrs by SRB assay; conditions: A549, 72 h
SK-HEP1 = test: Cytotoxicity against human SK-HEP1 cells assessed as reduction in cell viability incubated for 72 hrs by SRB assay; conditions: SK-HEP1, 72 h
HCT-116 = test: Cytotoxicity against human HCT-116 cells assessed as reduction in cell viability incubated for 72 hrs by SRB assay; conditions: HCT-116, 72 h
K562 = test: Cytotoxicity against human K562 cells assessed as reduction in cell viability incubated for 72 hrs by SRB assay; conditions: K562, 72 h

SMILES: CC(C)C[C@@H]1NC(=O)[C@H](Cc2ccccc2)N(C)C(=O)[C@@H](C)NC(=O)[C@H](C(C)C)N(C)C(=O)CCNC(=O)[C@H](C)N(C)C(=O)[C@H](C(C)C)NC(=O)[C@H](Cc2c[nH]c3ccccc23)N(C)C(=O)[C@@H]2CCCNN2C(=O)[C@H](CO)N(C)C1=O
- IC50 (A549/TR): 17 µM
- IC50 (NCI-H1299): 11 µM
- IC50 (HEL): 14 µM
- IC50 (NCI-H1975): 24 µM

SMILES: CC[C@H](C)[C@@H]1NC(=O)[C@H](Cc2c[nH]c3ccccc23)N(C)C(=O)[C@@H]2CCCNN2C(=O)[C@H](CO)N(C)C(=O)[C@H](CC(C)C)NC(=O)[C@H](Cc2ccccc2)N(C)C(=O)[C@@H](C)NC(=O)[C@H](C(C)C)N(C)C(=O)CCNC(=O)[C@H](C)N(C)C1=O
- IC50 (SNU-638): 0.2 µM
- IC50 (MDA-MB-231): 0.2 µM
- IC50 (A549): 0.2 µM
- IC50 (SK-HEP1): 0.2 µM
- IC50 (A549/TR): 19 µM
- IC50 (NCI-H1299): 11 µM
- IC50 (HCT-116): 0.2 µM
- IC50 (K562): 0.2 µM
- IC50 (HEL): 13 µM
- IC50 (NCI-H1975): 8 µM

SMILES: COc1cccc2c1C(=O)c1c(O)c3c(c(O)c1C2=O)C[C@@](O)(C(=O)CO)C[C@@H]3O[C@H]1C[C@H](N)[C@H](O)[C@H](C)O1 [DOXORUBICIN]
- IC50 (A549/TR): 1.6 µM
- IC50 (NCI-H1299): 1.4 µM
- IC50 (HEL): 0.05 µM
- IC50 (NCI-H1975): 0.12 µM

SMILES: COc1cc([C@@H]2c3cc4c(cc3[C@@H](O[C@@H]3O[C@@H]5CO[C@@H](C)O[C@H]5[C@H](O)[C@H]3O)[C@H]3COC(=O)[C@H]23)OCO4)cc(OC)c1O [ETOPOSIDE]
- IC50 (SNU-638): 0.4 µM
- IC50 (MDA-MB-231): 0.4 µM
- IC50 (A549): 0.4 µM
- IC50 (SK-HEP1): 0.4 µM
- IC50 (HCT-116): 0.4 µM
- IC50 (K562): 0.4 µM
